Reference: ChEMBL document CHEMBL1124467, “The binding of benzenesulfonamides to carbonic anhydrase enzyme. A molecular mechanics study and quantitative structure-activity relationships” (J Med Chem, 1989)

Legend:
[1] = target: T1, Carbonic anhydrase (Bos taurus) (UniProt P00921+Q95323+P18915+Q3SZX4)
Description: Inhibitory activity against bovine Carbonic anhydrase

[2] = target: T1, Carbonic anhydrase (Bos taurus); experiment: Inhibitory activity against Carbonic anhydrase; type: protein assay
Bos taurus = species: Bos taurus; experiment: Inhibitory activity against bovine erythrocyte B enzyme

| Log II50 [1] | Structure (SMILES) | other results |
| --- | --- | --- |
| 1.76 | NS(=O)(=O)c1ccc(Cl)c(Cl)c1 | – |
| 1.25 | NS(=O)(=O)c1cccc([N+](=O)[O-])c1 | – |
| 0.78 | Cc1ccc(S(N)(=O)=O)cc1 | – |
| 0.48 | Cc1ccc(S(N)(=O)=O)cc1C | – |
| 1.08 | NS(=O)(=O)c1ccc(Cl)cc1 | – |
| 0.66 | Cc1cccc(S(N)(=O)=O)c1 | – |
| 1.74 | NS(=O)(=O)c1ccc([N+](=O)[O-])c(Cl)c1 | – |

Continued, molecule first:

| Structure (SMILES) | Log II50 [1] | other results |
| --- | --- | --- |
| COc1ccc(S(N)(=O)=O)cc1 | 0.71 | – |
| Cc1ccccc1S(N)(=O)=O | 0.16 | – |
| NS(=O)(=O)c1ccc(Cl)c([N+](=O)[O-])c1 | – | Log II50 [2]: 2.13 |
| CC(=O)c1ccc(S(N)(=O)=O)cc1 | – | Log II50 (Bos taurus): 1.32 |
| NS(=O)(=O)c1ccccc1 | 0.58 | – |
| CC(=O)Nc1ccc(S(N)(=O)=O)cc1 | 1.48 | – |
| NS(=O)(=O)c1ccccc1Cl | – | Log II50 (Bos taurus): 0.88 |
| NS(=O)(=O)c1cccc(Cl)c1 | – | Log II50 (Bos taurus): 1 |
| CNc1ccc(S(N)(=O)=O)cc1 | 0.18 | – |
